This is an account of results in ChEMBL document CHEMBL3991601, “The target landscape of clinical kinase drugs” (Science, 2017).

Assay [1] addresses Bone morphogenetic protein receptor type-1A (Homo sapiens, UniProt P36894).
The target of assay [2] is T1, General transcription and DNA repair factor IIH helicase subunit XPD (Homo sapiens, UniProt P18074).
T1 sequence (P18074 whole entry): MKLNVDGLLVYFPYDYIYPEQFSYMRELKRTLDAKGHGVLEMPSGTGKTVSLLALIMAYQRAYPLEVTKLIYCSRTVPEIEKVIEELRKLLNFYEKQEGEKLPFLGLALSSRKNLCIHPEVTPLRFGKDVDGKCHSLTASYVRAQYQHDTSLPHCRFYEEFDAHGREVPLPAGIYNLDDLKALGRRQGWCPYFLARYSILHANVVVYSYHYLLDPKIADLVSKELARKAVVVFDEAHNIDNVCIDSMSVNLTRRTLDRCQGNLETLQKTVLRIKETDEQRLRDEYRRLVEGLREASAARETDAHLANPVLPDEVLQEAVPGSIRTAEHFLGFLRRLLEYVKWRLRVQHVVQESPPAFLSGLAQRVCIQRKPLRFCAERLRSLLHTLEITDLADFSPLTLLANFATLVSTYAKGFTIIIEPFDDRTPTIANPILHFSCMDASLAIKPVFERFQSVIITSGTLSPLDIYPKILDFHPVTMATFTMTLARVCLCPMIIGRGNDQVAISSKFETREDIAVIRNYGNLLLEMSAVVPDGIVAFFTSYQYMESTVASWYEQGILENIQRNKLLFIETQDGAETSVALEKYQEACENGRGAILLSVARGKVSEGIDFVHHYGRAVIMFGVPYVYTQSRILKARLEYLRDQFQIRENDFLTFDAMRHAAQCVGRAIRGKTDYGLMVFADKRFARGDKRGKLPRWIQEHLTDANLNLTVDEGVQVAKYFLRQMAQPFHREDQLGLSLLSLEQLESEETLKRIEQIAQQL
Conditions: read-out: Kd apparent; k-562, colo 205, sk-n-be(2) and mv-4-11.

The next assay has as its target Ephrin type-A receptor 5 (Homo sapiens, UniProt P54756).
Assay [3] concerns the target Tyrosine-protein kinase CSK (Homo sapiens, UniProt P41240).
The target in assay [4] is T2, Serine/threonine-protein kinase ULK1 (Homo sapiens, UniProt O75385).
T2 sequence (O75385 whole entry): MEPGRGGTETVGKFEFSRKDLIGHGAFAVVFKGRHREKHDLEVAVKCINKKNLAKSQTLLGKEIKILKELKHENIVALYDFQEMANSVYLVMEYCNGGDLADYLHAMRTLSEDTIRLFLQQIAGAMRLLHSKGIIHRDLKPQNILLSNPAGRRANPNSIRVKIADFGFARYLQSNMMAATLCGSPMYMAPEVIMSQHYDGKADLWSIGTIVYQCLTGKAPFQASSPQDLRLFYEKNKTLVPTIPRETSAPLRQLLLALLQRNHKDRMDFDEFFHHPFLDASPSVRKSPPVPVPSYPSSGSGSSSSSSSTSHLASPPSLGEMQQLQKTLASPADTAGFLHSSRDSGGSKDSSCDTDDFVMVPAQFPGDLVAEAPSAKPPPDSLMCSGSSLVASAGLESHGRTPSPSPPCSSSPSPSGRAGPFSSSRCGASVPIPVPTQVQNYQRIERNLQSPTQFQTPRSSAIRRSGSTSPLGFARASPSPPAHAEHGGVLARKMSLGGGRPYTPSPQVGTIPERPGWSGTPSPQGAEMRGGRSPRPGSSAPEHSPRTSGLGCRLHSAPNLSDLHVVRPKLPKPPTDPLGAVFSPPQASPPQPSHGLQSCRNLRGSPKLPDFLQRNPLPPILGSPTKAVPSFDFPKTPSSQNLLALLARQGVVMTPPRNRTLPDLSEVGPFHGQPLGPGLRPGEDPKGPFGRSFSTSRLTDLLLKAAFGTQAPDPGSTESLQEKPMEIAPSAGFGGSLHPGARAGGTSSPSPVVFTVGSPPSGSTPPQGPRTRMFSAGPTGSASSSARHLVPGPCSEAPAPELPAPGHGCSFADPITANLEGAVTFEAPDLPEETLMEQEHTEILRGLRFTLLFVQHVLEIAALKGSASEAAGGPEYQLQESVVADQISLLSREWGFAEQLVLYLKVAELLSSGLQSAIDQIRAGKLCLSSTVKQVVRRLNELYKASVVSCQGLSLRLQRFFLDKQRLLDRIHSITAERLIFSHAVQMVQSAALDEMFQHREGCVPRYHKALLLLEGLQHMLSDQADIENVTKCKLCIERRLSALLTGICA

In a further assay the target is T3, ADP/ATP translocase 3 (Homo sapiens, UniProt P12236).
T3 sequence (P12236 whole entry): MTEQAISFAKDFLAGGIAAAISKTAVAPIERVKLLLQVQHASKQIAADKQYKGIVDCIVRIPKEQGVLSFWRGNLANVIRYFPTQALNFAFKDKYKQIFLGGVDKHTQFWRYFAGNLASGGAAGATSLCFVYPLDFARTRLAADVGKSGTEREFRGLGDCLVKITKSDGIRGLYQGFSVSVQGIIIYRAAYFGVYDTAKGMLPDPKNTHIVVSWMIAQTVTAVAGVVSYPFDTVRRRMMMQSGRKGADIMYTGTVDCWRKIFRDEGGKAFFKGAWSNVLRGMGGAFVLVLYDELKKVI

Assay [5] addresses Platelet-derived growth factor receptor beta (Homo sapiens, UniProt P09619).
In assay [6] the target is Mitogen-activated protein kinase kinase kinase 20 (Homo sapiens, UniProt Q9NYL2).
Mitogen-activated protein kinase kinase kinase 20, sequence (Q9NYL2 whole entry): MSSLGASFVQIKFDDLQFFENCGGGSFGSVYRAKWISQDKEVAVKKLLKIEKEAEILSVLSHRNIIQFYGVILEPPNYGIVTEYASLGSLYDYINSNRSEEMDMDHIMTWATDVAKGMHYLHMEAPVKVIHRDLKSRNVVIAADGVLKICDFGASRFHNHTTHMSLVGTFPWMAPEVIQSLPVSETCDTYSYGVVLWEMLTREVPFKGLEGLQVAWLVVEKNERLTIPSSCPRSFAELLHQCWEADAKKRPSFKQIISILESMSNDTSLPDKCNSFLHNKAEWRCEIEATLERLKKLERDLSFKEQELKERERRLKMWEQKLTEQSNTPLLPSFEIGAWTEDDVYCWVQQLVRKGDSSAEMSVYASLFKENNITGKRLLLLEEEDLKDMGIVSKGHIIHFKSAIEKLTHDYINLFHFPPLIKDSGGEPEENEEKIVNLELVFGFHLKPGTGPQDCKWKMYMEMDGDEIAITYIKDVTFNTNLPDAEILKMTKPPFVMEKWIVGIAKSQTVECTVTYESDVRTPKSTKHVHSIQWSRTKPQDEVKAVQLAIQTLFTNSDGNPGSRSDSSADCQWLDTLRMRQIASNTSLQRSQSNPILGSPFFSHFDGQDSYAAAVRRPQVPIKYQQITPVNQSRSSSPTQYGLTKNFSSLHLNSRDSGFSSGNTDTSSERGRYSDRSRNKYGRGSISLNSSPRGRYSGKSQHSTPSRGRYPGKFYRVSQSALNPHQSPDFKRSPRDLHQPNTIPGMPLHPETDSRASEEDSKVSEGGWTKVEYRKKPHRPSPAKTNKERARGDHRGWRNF

Activity calls are given as the source filed them. Cut-off read from the data, not from the text of the source, for most assays here: actives have a measured Kd and inactives only a lower limit.
Note: in the data inactive means no Kd found up to 30 µM.

Ephrin type-A receptor 5, sequence (P54756 whole entry): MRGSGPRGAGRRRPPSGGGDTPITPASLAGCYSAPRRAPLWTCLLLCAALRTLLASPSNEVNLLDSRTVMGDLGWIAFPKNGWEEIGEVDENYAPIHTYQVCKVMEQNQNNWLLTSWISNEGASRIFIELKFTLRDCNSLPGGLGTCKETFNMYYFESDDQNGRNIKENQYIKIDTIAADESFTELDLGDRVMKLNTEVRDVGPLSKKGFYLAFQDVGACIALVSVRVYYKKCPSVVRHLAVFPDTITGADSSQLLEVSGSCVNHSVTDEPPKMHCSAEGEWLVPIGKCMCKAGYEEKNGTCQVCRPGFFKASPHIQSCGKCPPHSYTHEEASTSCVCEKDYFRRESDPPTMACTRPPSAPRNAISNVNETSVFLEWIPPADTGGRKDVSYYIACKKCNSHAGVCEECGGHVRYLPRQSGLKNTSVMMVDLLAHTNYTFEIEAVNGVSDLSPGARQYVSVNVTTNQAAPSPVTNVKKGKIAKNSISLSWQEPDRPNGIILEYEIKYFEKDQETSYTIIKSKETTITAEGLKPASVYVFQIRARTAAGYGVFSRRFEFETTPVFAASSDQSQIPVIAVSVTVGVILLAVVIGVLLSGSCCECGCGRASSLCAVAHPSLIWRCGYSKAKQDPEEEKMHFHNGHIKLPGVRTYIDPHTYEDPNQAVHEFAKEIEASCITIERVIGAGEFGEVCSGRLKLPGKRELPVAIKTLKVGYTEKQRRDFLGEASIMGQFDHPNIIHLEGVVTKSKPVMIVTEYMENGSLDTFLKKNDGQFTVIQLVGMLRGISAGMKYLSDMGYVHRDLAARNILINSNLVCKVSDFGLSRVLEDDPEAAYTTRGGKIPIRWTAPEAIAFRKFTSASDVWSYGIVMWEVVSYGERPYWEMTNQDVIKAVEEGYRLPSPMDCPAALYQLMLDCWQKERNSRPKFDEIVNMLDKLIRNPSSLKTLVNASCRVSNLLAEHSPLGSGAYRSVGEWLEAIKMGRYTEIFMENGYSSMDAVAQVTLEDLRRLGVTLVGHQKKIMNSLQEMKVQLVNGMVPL
Tyrosine-protein kinase CSK, sequence (P41240 whole entry): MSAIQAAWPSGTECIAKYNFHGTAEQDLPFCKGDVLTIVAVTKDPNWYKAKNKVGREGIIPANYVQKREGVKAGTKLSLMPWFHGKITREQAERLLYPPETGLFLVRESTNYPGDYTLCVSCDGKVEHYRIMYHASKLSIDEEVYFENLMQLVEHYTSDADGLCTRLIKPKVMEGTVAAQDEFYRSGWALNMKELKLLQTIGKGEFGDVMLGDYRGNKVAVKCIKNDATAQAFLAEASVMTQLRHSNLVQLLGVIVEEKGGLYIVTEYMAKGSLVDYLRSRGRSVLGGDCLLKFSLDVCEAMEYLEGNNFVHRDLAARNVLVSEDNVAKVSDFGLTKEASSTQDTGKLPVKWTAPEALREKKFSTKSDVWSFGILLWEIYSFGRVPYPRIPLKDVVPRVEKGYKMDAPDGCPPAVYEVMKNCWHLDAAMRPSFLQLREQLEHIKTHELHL
Bone morphogenetic protein receptor type-1A, sequence (P36894 whole entry): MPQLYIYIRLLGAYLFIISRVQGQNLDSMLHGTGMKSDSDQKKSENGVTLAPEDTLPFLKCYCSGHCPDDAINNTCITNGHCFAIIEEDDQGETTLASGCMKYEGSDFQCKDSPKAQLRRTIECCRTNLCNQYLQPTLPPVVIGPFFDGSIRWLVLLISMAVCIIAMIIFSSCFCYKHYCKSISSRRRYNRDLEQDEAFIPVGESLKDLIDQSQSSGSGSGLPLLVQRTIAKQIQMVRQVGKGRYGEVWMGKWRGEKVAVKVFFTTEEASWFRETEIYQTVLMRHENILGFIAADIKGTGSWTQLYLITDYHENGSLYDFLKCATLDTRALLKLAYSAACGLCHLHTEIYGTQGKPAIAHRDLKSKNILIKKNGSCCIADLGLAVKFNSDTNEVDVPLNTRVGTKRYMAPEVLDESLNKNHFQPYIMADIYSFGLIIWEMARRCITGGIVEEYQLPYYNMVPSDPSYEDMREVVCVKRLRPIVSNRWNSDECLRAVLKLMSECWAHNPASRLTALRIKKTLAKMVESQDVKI
Platelet-derived growth factor receptor beta, sequence (P09619 whole entry): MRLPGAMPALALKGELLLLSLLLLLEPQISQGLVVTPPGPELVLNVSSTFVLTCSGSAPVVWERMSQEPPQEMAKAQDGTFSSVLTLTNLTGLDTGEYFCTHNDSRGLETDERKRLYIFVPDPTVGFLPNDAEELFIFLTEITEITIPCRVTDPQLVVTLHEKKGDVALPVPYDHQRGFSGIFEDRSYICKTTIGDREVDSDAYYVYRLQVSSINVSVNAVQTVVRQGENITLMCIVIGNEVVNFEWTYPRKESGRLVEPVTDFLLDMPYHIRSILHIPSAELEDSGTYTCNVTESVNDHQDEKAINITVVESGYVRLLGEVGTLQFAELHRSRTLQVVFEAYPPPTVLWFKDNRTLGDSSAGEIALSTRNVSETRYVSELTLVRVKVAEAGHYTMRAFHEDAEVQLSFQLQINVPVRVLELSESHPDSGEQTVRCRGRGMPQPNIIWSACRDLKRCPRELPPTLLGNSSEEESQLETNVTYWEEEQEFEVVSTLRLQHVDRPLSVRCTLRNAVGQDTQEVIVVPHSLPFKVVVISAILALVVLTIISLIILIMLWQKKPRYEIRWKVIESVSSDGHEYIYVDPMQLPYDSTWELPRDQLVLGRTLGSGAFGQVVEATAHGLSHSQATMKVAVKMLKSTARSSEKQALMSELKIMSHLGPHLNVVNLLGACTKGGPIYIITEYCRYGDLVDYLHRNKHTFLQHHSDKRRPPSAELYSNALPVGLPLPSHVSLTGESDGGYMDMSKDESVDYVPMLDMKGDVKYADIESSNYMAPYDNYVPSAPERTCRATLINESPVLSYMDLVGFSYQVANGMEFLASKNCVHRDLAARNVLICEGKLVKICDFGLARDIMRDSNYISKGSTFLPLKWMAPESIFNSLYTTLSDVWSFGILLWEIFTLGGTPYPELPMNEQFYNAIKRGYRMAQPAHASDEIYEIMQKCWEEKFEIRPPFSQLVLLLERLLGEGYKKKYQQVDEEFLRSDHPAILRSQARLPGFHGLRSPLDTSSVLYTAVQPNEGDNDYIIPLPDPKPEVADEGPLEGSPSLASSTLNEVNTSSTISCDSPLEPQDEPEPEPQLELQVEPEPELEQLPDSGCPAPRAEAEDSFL

Take `FC(F)(F)c1ccc(/C=C/c2nc(COc3ccc(CCCCn4ccnn4)cc3)co2)cc1` [MUBRITINIB]: the Kd (in assay [1]; in assay [2]; at Ephrin type-A receptor 5; in assay [3]; in assay [4]; at ADP/ATP translocase 3) was > 30 µM (inactive) in each case. Besides, the Kd in assay [5] and in assay [6] was > 30 µM (inactive) each time.
With `COc1ncc(-c2ccc3nccc(-c4ccnnc4)c3c2)cc1NS(=O)(=O)c1ccc(F)cc1F` [OMIPALISIB], the Kd (in assay [1]; in assay [2]; on Ephrin type-A receptor 5; in assay [3]; in assay [4]; at ADP/ATP translocase 3) was > 30 µM (inactive) throughout. Besides, the Kd in assay [5] and in assay [6] was > 30 µM (inactive) in each case.
Regarding `CCOc1cc2ncc(C#N)c(Nc3ccc(F)c(Cl)c3)c2cc1NC(=O)/C=C/CN(C)C` [PELITINIB], the Kd (in assay [1]; in assay [2]; at Ephrin type-A receptor 5; in assay [3]; in assay [4]; on ADP/ATP translocase 3) was > 30 µM (inactive) in each case. The Kd was > 30 µM (inactive) in assay [5] and 0.875 µM (active) in assay [6].
Take `CCCCCCCCCCCCCCCCCCOP(=O)([O-])OC1CC[N+](C)(C)CC1` [PERIFOSINE]: the Kd (in assay [1]; in assay [2]; on Ephrin type-A receptor 5; in assay [3]; in assay [4]; at ADP/ATP translocase 3) was > 30 µM (inactive) throughout. The Kd in assay [5] and in assay [6] was > 30 µM (inactive) in each case.
Regarding `Cc1nc(Nc2n[nH]c3c2CN(C(=O)N[C@H](CN(C)C)c2ccccc2)C3(C)C)c2sccc2n1` [PF-03758309], the Kd is > 30 µM (inactive) in assay [1]; 0.002 µM (active) in assay [2]; > 30 µM (inactive) on Ephrin type-A receptor 5; > 30 µM (inactive) in assay [3]; > 30 µM (inactive) in assay [4]; > 30 µM (inactive) at ADP/ATP translocase 3. The Kd is 29.7 µM in assay [5] and > 30 µM (inactive) in assay [6].
For `Cc1cnc(NC(=O)Nc2cc(Br)c(C)cc2OC[C@@H]2CNCCO2)cn1` [RABUSERTIB], the Kd (in assay [1]; in assay [2]; on Ephrin type-A receptor 5; in assay [3]; in assay [4]; at ADP/ATP translocase 3) was > 30 µM (inactive) each time. In addition, the Kd in assay [5] and in assay [6] was > 30 µM (inactive) each time.
As for `CNC(=O)c1cc(Oc2ccc(NC(=O)Nc3cc(C(C)(C)C)nn3-c3ccc4ncccc4c3)c(F)c2)ccn1` [REBASTINIB], the Kd in assay [1] is > 30 µM (inactive); in assay [2] it was > 30 µM (inactive); at Ephrin type-A receptor 5, > 30 µM (inactive); in assay [3], 0.41 µM (active); in assay [4], > 30 µM (inactive); at ADP/ATP translocase 3 it was > 30 µM (inactive). The results for the Kd in assay [5] and in assay [6] were > 30 µM (inactive) and 0.388 µM (active), respectively.
In the case of `CO[C@H]1C[C@@H]2CC[C@@H](C)[C@@](O)(O2)C(=O)C(=O)N2CCCC[C@H]2C(=O)O[C@H]([C@H](C)C[C@@H]2CC[C@@H](OP(C)(C)=O)[C@H](OC)C2)CC(=O)[C@H](C)/C=C(\C)[C@@H](O)[C@@H](OC)C(=O)[C@H](C)C[C@H](C)/C=C/C=C/C=C/1C` [RIDAFOROLIMUS], the Kd (in assay [1]; in assay [2]; on Ephrin type-A receptor 5; in assay [3]; in assay [4]; at ADP/ATP translocase 3) was > 30 µM (inactive) throughout. Besides, the Kd in assay [5] and in assay [6] was > 30 µM (inactive) each time.
As for `N#CC1(c2ccc(NC(=O)c3cccnc3NCc3ccncc3)cc2)CCCC1` [RIVOCERANIB], the Kd (in assay [1]; in assay [2]; at Ephrin type-A receptor 5; in assay [3]; in assay [4]; on ADP/ATP translocase 3) was > 30 µM (inactive) each time. For the same compound, the Kd in assay [5] is > 30 µM (inactive); in assay [6] it was 4.76 µM (active).
For the compound `O=c1[nH]ccc2cc(OC3CCNCC3)ccc12` [SAR-407899 FREE BASE], the Kd (in assay [1]; in assay [2]; on Ephrin type-A receptor 5; in assay [3]; in assay [4]; at ADP/ATP translocase 3) was > 30 µM (inactive) in each case. In addition, the Kd in assay [5] and in assay [6] was > 30 µM (inactive) in each case.
On to `Cn1cc(-c2cnn3c(N)c(Br)c([C@@H]4CCCNC4)nc23)cn1` [SCH-900776], for which the Kd (in assay [1]; in assay [2]; on Ephrin type-A receptor 5; in assay [3]; in assay [4]; on ADP/ATP translocase 3) was > 30 µM (inactive) each time. The Kd in assay [5] and in assay [6] was > 30 µM (inactive) in each case.
As to `CO[C@H]1C[C@@H]2CC[C@@H](C)[C@@](O)(O2)C(=O)C(=O)N2CCCC[C@H]2C(=O)O[C@H]([C@H](C)C[C@@H]2CC[C@@H](O)[C@H](OC)C2)CC(=O)[C@H](C)/C=C(\C)[C@@H](O)[C@@H](OC)C(=O)[C@H](C)C[C@H](C)/C=C/C=C/C=C/1C` [SIROLIMUS], the Kd (in assay [1]; in assay [2]; on Ephrin type-A receptor 5; in assay [3]; in assay [4]; on ADP/ATP translocase 3) was > 30 µM (inactive) each time. Moreover, the Kd in assay [5] and in assay [6] was > 30 µM (inactive) in each case.
For `CO[C@H]1C[C@@H]2CC[C@@H](C)[C@@](O)(O2)C(=O)C(=O)N2CCCC[C@H]2C(=O)O[C@H]([C@H](C)C[C@@H]2CC[C@@H](OC(=O)C(C)(CO)CO)[C@H](OC)C2)CC(=O)[C@H](C)/C=C(\C)[C@@H](O)[C@@H](OC)C(=O)[C@H](C)C[C@H](C)/C=C/C=C/C=C/1C` [TEMSIROLIMUS], the Kd (in assay [1]; in assay [2]; at Ephrin type-A receptor 5; in assay [3]; in assay [4]; at ADP/ATP translocase 3) was > 30 µM (inactive) each time. Moreover, the Kd in assay [5] and in assay [6] was > 30 µM (inactive) each time.
